Where a name gives a salt, the structure may show the parent alone.
Legend:
[1] = biological target: Antibody from Mannich Immunogen; assay: RIA cross-reactivity: competition with labeled physostigmine for antibody from Mannich immunogen; format: binding, New Zealand white rabbits; settings: 1:100, max 1000 ng tested
Protocol: (§1) Antibodies to the physostigmine-BSA immunogen were produced by injecting male New Zealand white rabbits with immunogens formed by either method. Prior to injection, the immunogen was emulsified with an equal volume of complete Freund's adjuvant, purchased from Difco Laboratories of Detroit, Mich. The initial immunization consisted of 0.8 mg of protein injected intracutaneously in multiple dorsal sites of the rabbits. Booster injections containing 0.8 mg of immunogen and incomplete Freund's adjuvant were administered every two months for the next six months. Antisera was collected one week after each booster injection from the central ear vein. The blood was allowed to clot at room temperature and then centrifuged at 1500×g for 15 minutes. The separated serum was stored frozen at -20° C. until assayed for the presence of physostigmine antibody.
In the assay procedure ^3 H-Physostigmine having specificity of 19.0 Ci/mmole and purchased from the Amersham Corp. of Arlington Heights, Ill., was used as tracer. […] Both standard and sample tubes were always analyzed in duplicate. The assay was carried out according to the protocol shown in Table 1 with the reagents were added to the assay tubes in the order shown.
(§2) According to the protocol for the RIA of the present invention, after the addition of antisera, the contents of the tubes were mixed and incubated for 3 hours at 4° C. The antigen which bound to the antibody was separated by adding saturated ammonium sulfate and centrifuging at 2500×g for 15 minutes. After aspiration of the supernatant, the precipitate was washed one time with 50% saturated ammonium sulfate; then the mixture was centrifuged and the supernatent removed. The precipitate was dissolved in 1.0 ml of distilled water, and the solution was transferred to a scintillation vial containing 10.0 ml of acquasol 2.
(§3) The radioactivity which was bound to the antibody was determined in counts per minute with a Beckman LS-3133P Liquid Scintillation Counter. […] The concentration of physostigmine is plotted on the horizontal axis, while the percent inhibition of binding radioactively labeled is plotted on the vertical axis. […] Concentrations of physostigmine in unknown samples were determined according to conventional calculations from the standard curve.
(§4) Competition of the compounds with labeled physostigmine (5000 dpm) for antibody binding sites was determined arbitrarily at 50% inhibition of the physostigmine on the standard curve. Each compound was tested for cross-reactivity with the antibody. The maximum concentration of each compound tested was 1000 ng.

[2] = biological target: Antibody from Diazo-coupled Immunogen; assay: RIA cross-reactivity: competition with labeled physostigmine for antibody from diazo-coupled immunogen; format: binding, New Zealand white rabbits; settings: 1:150, max 1000 ng tested
Protocol: as §1
In the assay procedure ^3 H-Physostigmine having specificity of 19.0 Ci/mmole and purchased from the Amersham Corp. of Arlington Heights, Ill., was used as tracer. The dilution of tracer (5000 dpm), antibody (1:150) and physostigmine standards (100-10,000 pg) were made using 0.01M phosphate buffer containing 150 mM sodium chloride with a pH of 7.4. […] Both standard and sample tubes were always analyzed in duplicate. The assay was carried out according to the protocol shown in Table 1 with the reagents were added to the assay tubes in the order shown.
as §2, §3, §4

[3] = test system: antibodies to physostigmine; assay: Specificity of the antibodies to physostigmine (both antibodies; RIA, HPLC-RIA); format: binding, New Zealand white rabbits; settings: for binding to the antibodies: RIA
Protocol: as §1
In the assay procedure ^3 H-Physostigmine having specificity of 19.0 Ci/mmole and purchased from the Amersham Corp. of Arlington Heights, Ill., was used as tracer. The dilution of tracer (5000 dpm), antibody (1:150) and physostigmine standards (100-10,000 pg) were made using 0.01M phosphate buffer containing 150 mM sodium chloride with a pH of 7.4. […] Both standard and sample tubes were always analyzed in duplicate. […]
The HPLC system consisted of Waters Associates liquid chromatograph equipped with a 6000 A solvent delivery system, a Model 441 absorbance detector, a U6K injector, a model 720 system controller, an Omni Scribe recorder (Houston Instruments, Houston, Tex.), a model cygnet Fraction collector (ISCO, Lincoln, Nebr.).
High pressure liquid chromatography (HPLC) was performed using a model C18 u Bondapak column (30 cm×0.39 cm. lid) (waters). The Uv detector was fixed at 245 nm with range set at 0.005 absorbance units full scale and flow rate of the mobile phase adjusted to 2 ml/min. […]
The column was operated at ambient temperature. […] Each residue was then reconstituted using the assay buffer and was analyzed for physostigmine by the RIA. […]

[4] = cited from earlier work

## CN1CCC2(C)c3cc4nc5c(=O)c6c(cc-5oc4cc3N(C)C12)N(C)C1N(C)CCC61C (centres unmarked) [Eserine blue]
[1]
  IC50 (50% inhibition of binding of 3H-physostigmine): 575 ng
[2]
  IC50 (50% inhibition of binding of 3H-physostigmine): 600 ng

## CN1CC[C@@]2(C)c3cc(O)ccc3N(C)[C@@H]12 [Eseroline, eseroline]
[1]
  IC50 (50% inhibition of binding of 3H-physostigmine): 200 ng
[3]
  amount required to displace radioactive physostigmine from the antibodies, relative to physostigmine: ~150 times
[2]
  IC50 (50% inhibition of binding of 3H-physostigmine): 200 ng

## COc1ccc2c(c1)c(CC(=O)O)c(C)n2C(=O)c1ccc(Cl)cc1 [Indomethacin]
[1]
  IC50 (50% inhibition of binding of 3H-physostigmine): > 1000 ng
[2]
  IC50 (50% inhibition of binding of 3H-physostigmine): > 1000 ng

## COc1ccc2[nH]cc(CCNC(C)=O)c2c1 [Melatonin]
[1]
  IC50 (50% inhibition of binding of 3H-physostigmine): > 1000 ng
[2]
  IC50 (50% inhibition of binding of 3H-physostigmine): > 1000 ng

## CN(C)C(=O)Oc1cccc([N+](C)(C)C)c1 [Neostigmine]
[1]
  IC50 (50% inhibition of binding of 3H-physostigmine): > 1000 ng
[3]
  binding to the antibodies: did not bind to the antibodies
[2]
  IC50 (50% inhibition of binding of 3H-physostigmine): > 1000 ng

## C[n+]1ccccc1C=NO [Paralidoxime]
[1]
  IC50 (50% inhibition of binding of 3H-physostigmine): > 1000 ng
[2]
  IC50 (50% inhibition of binding of 3H-physostigmine): > 1000 ng

## CNC(=O)Oc1ccc2c(c1)[C@]1(C)CCN(C)[C@@H]1N2C [Physostigmine salts]
[4]; alkaline solutions
  stability in alkaline solutions: unstable in alkaline solutions
[4]
  solubility in water: soluble in water
[4]; rate enhanced in the presence of moisture
  color change upon exposure to air and light: gradually turn red upon exposure to air and light

## CN(C)C(=O)Oc1ccc[n+](C)c1 [Pyridostigmine]
[1]
  IC50 (50% inhibition of binding of 3H-physostigmine): > 1000 ng
[3]
  binding to the antibodies: did not bind to the antibodies
[2]
  IC50 (50% inhibition of binding of 3H-physostigmine): > 1000 ng

## CN1CC[C@@]2(C)C3=CC(=O)C(=O)C=C3N(C)[C@@H]12 [Rubreserine]
[1]
  IC50 (50% inhibition of binding of 3H-physostigmine): 248 ng
[2]
  IC50 (50% inhibition of binding of 3H-physostigmine): 224 ng

## NCCc1c[nH]c2ccc(O)cc12 [Serotonin]
[1]
  IC50 (50% inhibition of binding of 3H-physostigmine): > 1000 ng
[2]
  IC50 (50% inhibition of binding of 3H-physostigmine): > 1000 ng

## Eserine brown
[1]
  IC50 (50% inhibition of binding of 3H-physostigmine): 625 ng
[2]
  IC50 (50% inhibition of binding of 3H-physostigmine): 550 ng

From US5252495A, “Immunoassay for physostigmine” (priority 1992, dated 1993)
